As usually defined, the Kd is a measure of binding affinity in units of concentration. The low end stands for higher affinity, the high end for lower affinity.

Structures are written as SMILES.

Consider 2 molecules from publication PMC12491641 (Nature Communications, 2025).

Common to all, as to assay type: binding
In assay [1] the target is T1, OsD14 (Oryza sativa, UniProt Q10QA5).
T1 sequence (Q10QA5 1-318): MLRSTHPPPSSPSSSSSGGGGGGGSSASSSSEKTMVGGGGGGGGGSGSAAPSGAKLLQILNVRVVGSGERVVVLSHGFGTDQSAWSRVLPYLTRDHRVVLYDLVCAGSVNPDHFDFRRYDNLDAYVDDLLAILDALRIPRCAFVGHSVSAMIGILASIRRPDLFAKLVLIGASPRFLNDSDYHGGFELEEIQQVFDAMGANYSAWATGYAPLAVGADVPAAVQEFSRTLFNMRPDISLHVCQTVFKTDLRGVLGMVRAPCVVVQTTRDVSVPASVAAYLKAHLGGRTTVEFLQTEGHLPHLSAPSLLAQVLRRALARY
The assay is described as follows: nanoDSF Tm increase. Background: In DSF a fluorescence change marks the thermal transition of the protein.

Assay [2] deals with T2, AtD14 (DWARF14) (Arabidopsis thaliana, UniProt Q9SQR3).
T2 sequence (Q9SQR3 2-266): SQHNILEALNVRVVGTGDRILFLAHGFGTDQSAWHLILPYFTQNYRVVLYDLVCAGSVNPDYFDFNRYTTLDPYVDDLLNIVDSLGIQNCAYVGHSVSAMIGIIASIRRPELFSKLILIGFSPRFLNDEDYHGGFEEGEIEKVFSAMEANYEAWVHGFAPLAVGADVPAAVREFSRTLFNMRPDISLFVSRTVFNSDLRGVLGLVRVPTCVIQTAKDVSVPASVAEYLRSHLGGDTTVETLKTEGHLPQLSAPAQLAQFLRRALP
The assay is described as follows: co-crystal structure.

The target in assay [3] is T2, AtD14 (DWARF14). The assay is described as follows: intrinsic tryptophan fluorescence Kd.

Turning to `CC(=O)/C=C/C=C(C)/C=C/C1=C(C)CC(O)CC1(C)C` (stereo in doubt) [zaxinone], in assay [1], the “nanoDSF Tm increase; tryptophan fluorescence” value was “tryptophan fluorescence assays confirmed the direct interaction between OsD14 and zaxinone”. In assay [2], this molecule displayed a dissociation constant Kd of 1800 nM. With `CC1=CC(O/C=C2/C(=O)OC3c4ccccc4CC23)OC1=O` (racemic) [(±)-GR24], the Kd in assay [3] was determined as 990 nM.
